The text below walks through data of patent US20260207615A1, “FLUOROPYRIDOPYRIMIDINE AND FLUOROQUINAZOLINE DERIVATIES AND METHODS OF USE THEREOF” (Frontier Medicines Corporation, priority 2022, published 2026).

Molecules are shown by their SMILES.

For this assay, the target named is T1, KRAS G12C and cRAF interaction (Homo sapiens, UniProt P01116, C118S/C51S/C80L/G12C).
T1 construct: truncated version comprising amino acids 1-169
T1 sequence (P01116 1-169 isoform P01116-2 G12C/C51S/C80L/C118S): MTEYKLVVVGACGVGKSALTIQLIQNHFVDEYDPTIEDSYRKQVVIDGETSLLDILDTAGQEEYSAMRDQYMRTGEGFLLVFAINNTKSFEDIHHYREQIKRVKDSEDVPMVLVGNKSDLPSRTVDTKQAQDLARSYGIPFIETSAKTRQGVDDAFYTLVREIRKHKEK
As to the kind of experiment: Inhibition of KRAS G12C and cRAF binding (AlphaScreen). The note with it: KRAS G12C (Cys-light, aa 1-169) preloaded with GMPPNP, cRaf RBD (aa 50-131), 2 hours incubation. The format is biochemical. The procedure:
The AlphaScreen technology was used to determine IC50s for compound inhibition of KRAS G12C (present as the Cys-light (C51S, C80L and C118S), truncated version comprising amino acids 1-169) and cRAF interaction. Compounds were diluted in 100% DMSO and each compound concentration was spotted at 200 nl/well onto low volume, white 384 well plates. The KRAS G12C contained a biotin-AviTag and the cRaf, as Ras-binding domain (amino acids 50-131, RBD), was GST-tagged. KRAS G12C was preloaded with the GTP analogue Guanosine 5′-[β,γ-imido]triphosphate (GMPPNP). The KRAS G12C was diluted in 25 mM Hepes, pH 7.4, 150 mM NaCl, 5 mM MgCl2, 0.01% TritonX-100 and 10 μM GMPPNP and added at 10 μl/well to compound-spotted plates resulting in a DMSO concentration of 2%. Plates were incubated for 2 hours. A mixture of RBD and the AlphaScreen streptavidin donor and glutathione acceptor beads diluted in 25 mM Hepes, pH 7.4, 150 mM NaCl, 5 mM MgCl2, 0.01% TritonX-100 and 2% DMSO was then added at 10 μl/well and incubated for 60-90 minutes before the samples were read for emission at 570 nm after excitation of the donor beads at 680 nm. All incubations were performed at room temperature. The final top compound concentration was 50 μM with 1:3 titrations for 10-point dose response curves. Final assay conditions were 0.5 nM KRAS G12C, 0.75 nM RBD and 5 μg/ml each of AlphaScreen donor and acceptor beads. IC50S were determined using nonlinear regression fit of [inhibitor] vs. response (4 parameters).
A counter assay was also set up to rule out inhibitors of the AlphaScreen technology itself. Compound plates were incubated for 2 hours as above with buffer only.
The AlphaScreen beads were added as above except biotin-AviTag-GST was substituted for the RBD. Samples were read and analyzed as above.
On to `Cc1cc(/C=C/C(=O)N2CCN(c3nc(OC[C@@]45CCCN4C[C@H](F)C5)nc4c(F)c(-c5cccc(Cl)c5C(F)(F)F)ncc34)CC23COC3)nc(C)n1` [Example 69], for which the IC50 is 100 to 500 nM.
Compound `C=CC(=O)N1CCN(c2nc(OC[C@@]34CCCN3C[C@H](F)C4)nc3c(F)c(-c4cc(O)cc(Cl)c4C4CC4)ncc23)CC12COC2` [Example 31, 1-(8-(7-(3-chloro-2-cyclopropyl-5-hydroxyphenyl)-8-fluoro-2-(((2R,7aS)-2-fluorotetrahydro-1H-pyrrolizin-7a(5H)-yl)methoxy)pyrido[4,3-d]pyrimidin-4-yl)-2-oxa-5,8-diazaspiro[3.5]nonan-5-yl) prop-2-en-1-one] returned a concentration for half-maximal inhibition (IC50) of under 10 nM.
`C=CC(=O)N1CCN(c2nc(OC[C@@]34CCCN3C[C@H](F)C4)nc3c(F)c(-c4n[nH]c5cccc(Cl)c45)ncc23)CC12COC2` [Example 75] returned an IC50 of at least 500 nM.
Under `C=CC(=O)N1CCN(c2nc(OC[C@@]34CCCN3C[C@H](F)C4)nc3c(F)c(-c4cccc(Cl)c4C(F)(F)F)ncc23)CC12COC2` [Example 39, 1-(8-(7-(3-chloro-2-(trifluoromethyl)phenyl)-8-fluoro-2-(((2R,7aS)-2-fluorotetrahydro-1H-pyrrolizin-7a(5H)-yl)methoxy)pyrido[4,3-d]pyrimidin-4-yl)-2-oxa-5,8-diazaspiro[3.5]nonan-5-yl) prop-2-en-1-one] stands 10 to 100 nM; under `C#Cc1c(F)ccc2cccc(-c3ncc4c(N5CCN(C(=O)/C=C/CN6CC[C@@H](OC)C6)C6(COC6)C5)nc(OC[C@@]56CCCN5C[C@H](F)C6)nc4c3F)c12` [Example 43, (E)-1-(8-(7-(8-ethynyl-7-fluoronaphthalen-1-yl)-8-fluoro-2-(((2R,7aS)-2-fluorotetrahydro-1H-pyrrolizin-7a(5H)-yl)methoxy)pyrido[4,3-d]pyrimidin-4-yl)-2-oxa-5,8-diazaspiro[3.5]nonan-5-yl)-4-((R)-3-methoxypyrrolidin-1-yl) but-2-en-1-one], 10 to 100 nM; under `CO[C@@H]1CCN(C/C=C/C(=O)N2CCN(c3nc(OC[C@@]45CCCN4C[C@H](F)C5)nc4c(F)c(-c5cccc6ccc(F)c(Cl)c56)ncc34)CC23COC3)C1` [Example 8, (E)-1-(8-(7-(8-chloro-7-fluoronaphthalen-1-yl)-8-fluoro-2-(((2R,7aS)-2-fluorotetrahydro-1H-pyrrolizin-7a(5H)-yl)methoxy)pyrido[4,3-d]pyrimidin-4-yl)-2-oxa-5,8-diazaspiro[3.5]nonan-5-yl)-4-((R)-3-methoxypyrrolidin-1-yl) but-2-en-1-one], 10 to 100 nM.
In turn, `C#Cc1c(F)ccc2cccc(-c3ncc4c(N5CCN(C(=O)/C=C/[C@H]6CCN6C)C6(COC6)C5)nc(OC[C@@]56CCCN5C[C@H](F)C6)nc4c3F)c12` [Example 66] showed an IC50 of 10 to 100 nM.
Take `Cc1nccc(/C=C(\F)C(=O)N2CCN(c3nc(OC[C@@]45CCCN4C[C@H](F)C5)nc4c(F)c(-c5cccc6ccc(F)c(F)c56)ncc34)CC23COC3)n1` [Example 60, (Z)-1-(8-(7-(7,8-difluoronaphthalen-1-yl)-8-fluoro-2-(((2R,7aS)-2-fluorotetrahydro-1H-pyrrolizin-7a(5H)-yl)methoxy)pyrido[4,3-d]pyrimidin-4-yl)-2-oxa-5,8-diazaspiro[3.5]nonan-5-yl)-2-fluoro-3-(2-methylpyrimidin-4-yl) prop-2-en-1-one]: the IC50 is under 10 nM.
Turning to `C=CC(=O)N1CCN(c2nc(OC[C@@H]3CCCN3C)nc3c(F)c(-c4cccc5cccc(Cl)c45)ncc23)CC12CCOC2` (stereo partly drawn) [Example 83], the IC50 was at least 500 nM.
Under `O=C(/C=C/CN1C[C@@H]2C[C@H]1CO2)N1CCN(c2nc(OC[C@@]34CCCN3C[C@H](F)C4)nc3c(F)c(-c4cccc(Cl)c4C(F)(F)F)ncc23)CC12COC2` [Example 57, (E)-4-((1S,4S)-2-oxa-5-azabicyclo[2.2.1]heptan-5-yl)-1-(8-(7-(3-chloro-2-(trifluoromethyl)phenyl)-8-fluoro-2-(((2R,7aS)-2-fluorotetrahydro-1H-pyrrolizin-7a(5H)-yl)methoxy)pyrido[4,3-d]pyrimidin-4-yl)-2-oxa-5,8-diazaspiro[3.5]nonan-5-yl) but-2-en-1-one] stands 10 to 100 nM; under `CN(C)C/C=C/C(=O)N1CCN(c2nc(OC[C@@]34CCCN3C[C@H](F)C4)nc3c(F)c(-c4cc(O)cc(Cl)c4C4CC4)ncc23)CC12COC2` [Example 55, (E)-1-(8-(7-(3-chloro-2-cyclopropyl-5-hydroxyphenyl)-8-fluoro-2-(((2R,7aS)-2-fluorotetrahydro-1H-pyrrolizin-7a(5H)-yl)methoxy)pyrido[4,3-d]pyrimidin-4-yl)-2-oxa-5,8-diazaspiro[3.5]nonan-5-yl)-4-(dimethylamino)but-2-en-1-one], under 10 nM.
Regarding `Cc1cc(/C=C/C(=O)N2CCN(c3nc(OC[C@@]45CCCN4C[C@H](F)C5)nc4c(F)c(-c5cccc6ccc(F)c(F)c56)ncc34)CC23COC3)nc(C)n1` [Example 32, (E)-1-(8-(7-(7,8-difluoronaphthalen-1-yl)-8-fluoro-2-(((2R,7aS)-2-fluorotetrahydro-1H-pyrrolizin-7a(5H)-yl)methoxy)pyrido[4,3-d]pyrimidin-4-yl)-2-oxa-5,8-diazaspiro[3.5]nonan-5-yl)-3-(2,6-dimethylpyrimidin-4-yl) prop-2-en-1-one], the IC50 was 10 to 100 nM.
In turn, `O=C(/C=C/CN1CCOCC1)N1CCN(c2nc(OC[C@@]34CCCN3C[C@H](F)C4)nc3c(F)c(-c4cccc5ccc(F)c(F)c45)ncc23)CC12COC2` [Example 18, (E)-1-(8-(7-(7,8-difluoronaphthalen-1-yl)-8-fluoro-2-(((2R,7aS)-2-fluorotetrahydro-1H-pyrrolizin-7a(5H)-yl)methoxy)pyrido[4,3-d]pyrimidin-4-yl)-2-oxa-5,8-diazaspiro[3.5]nonan-5-yl)-4-morpholinobut-2-en-1-one] showed an IC50 of 10 to 100 nM.
Under `CC(C#CC(=O)N1CCN(c2nc(OC[C@@]34CCCN3C[C@H](F)C4)nc3c(F)c(-c4cccc5cccc(Cl)c45)ncc23)CC12COC2)N1CCOCC1` (stereo partly drawn) [Example 40, 1-(8-(7-(8-chloronaphthalen-1-yl)-8-fluoro-2-(((2R,7aS)-2-fluorotetrahydro-1H-pyrrolizin-7a(5H)-yl)methoxy)pyrido[4,3-d]pyrimidin-4-yl)-2-oxa-5,8-diazaspiro[3.5]nonan-5-yl)-4-morpholinopent-2-yn-1-one] stands 100 to 500 nM; under `O=C(/C=C/CN1[C@@H]2CC[C@H]1COC2)N1CCN(c2nc(OC[C@@]34CCCN3C[C@H](F)C4)nc3c(F)c(-c4cc(O)cc(Cl)c4C4CC4)ncc23)CC12COC2` [Example 29, (E)-4-((1R,5S)-3-oxa-8-azabicyclo[3.2.1]octan-8-yl)-1-(8-(7-(3-chloro-2-cyclopropyl-5-hydroxyphenyl)-8-fluoro-2-(((2R,7aS)-2-fluorotetrahydro-1H-pyrrolizin-7a(5H)-yl)methoxy)pyrido[4,3-d]pyrimidin-4-yl)-2-oxa-5,8-diazaspiro[3.5]nonan-5-yl) but-2-en-1-one], under 10 nM.
With `Cc1nccc(/C=C/C(=O)N2CCN(c3nc(OC[C@@]45CCCN4C[C@H](F)C5)nc4c(F)c(-c5cccc6ccc(F)c(F)c56)ncc34)CC23COC3)n1` [Example 5, (E)-1-(8-(7-(7,8-difluoronaphthalen-1-yl)-8-fluoro-2-(((2R,7aS)-2-fluorotetrahydro-1H-pyrrolizin-7a(5H)-yl)methoxy)pyrido[4,3-d]pyrimidin-4-yl)-2-oxa-5,8-diazaspiro[3.5]nonan-5-yl)-3-(2-methylpyrimidin-4-yl) prop-2-en-1-one] the figure was 10 to 100 nM; with `Cc1cc(/C=C(\F)C(=O)N2CCN(c3nc(OC[C@@]45CCCN4C[C@H](F)C5)nc4c(F)c(-c5cccc6ccc(F)c(F)c56)ncc34)CC23COC3)nc(C)n1` [Example 59, (Z)-1-(8-(7-(7,8-difluoronaphthalen-1-yl)-8-fluoro-2-(((2R,7aS)-2-fluorotetrahydro-1H-pyrrolizin-7a(5H)-yl)methoxy)pyrido[4,3-d]pyrimidin-4-yl)-2-oxa-5,8-diazaspiro[3.5]nonan-5-yl)-3-(2,6-dimethylpyrimidin-4-yl)-2-fluoroprop-2-en-1-one], under 10 nM.
Under `Cc1nccc(/C=C/C(=O)N2CCN(c3nc(OC[C@@]45CCCN4C[C@H](F)C5)nc4c(F)c(-c5cc(O)cc(Cl)c5C5CC5)ncc34)CC23COC3)n1` [Example 41, (E)-1-(8-(7-(3-chloro-2-cyclopropyl-5-hydroxyphenyl)-8-fluoro-2-(((2R,7aS)-2-fluorotetrahydro-1H-pyrrolizin-7a(5H)-yl)methoxy)pyrido[4,3-d]pyrimidin-4-yl)-2-oxa-5,8-diazaspiro[3.5]nonan-5-yl)-3-(2-methylpyrimidin-4-yl) prop-2-en-1-one] stands under 10 nM.
